Test results: paper PMC5678437, “A new antagonist for CCR4 attenuates allergic lung inflammation in a mouse model of asthma” (Scientific Reports, 2017)

Key:
Assay type in all cases: cell-based
[1] = biological target: T1, CCR2B (Homo sapiens, UniProt P41597); assay: Chemotaxis inhibition assay for receptor specificity, HEK293-CCR2B; details: 0.2, 1, 5, 25 μM, 30 min pretreatment
T1 construct: expressed in transfected cells; host or cells: HEK293, pcDB-CCR2B plasmid made in the authors' laboratory
T1 sequence (P41597 1-360 isoform P41597-2): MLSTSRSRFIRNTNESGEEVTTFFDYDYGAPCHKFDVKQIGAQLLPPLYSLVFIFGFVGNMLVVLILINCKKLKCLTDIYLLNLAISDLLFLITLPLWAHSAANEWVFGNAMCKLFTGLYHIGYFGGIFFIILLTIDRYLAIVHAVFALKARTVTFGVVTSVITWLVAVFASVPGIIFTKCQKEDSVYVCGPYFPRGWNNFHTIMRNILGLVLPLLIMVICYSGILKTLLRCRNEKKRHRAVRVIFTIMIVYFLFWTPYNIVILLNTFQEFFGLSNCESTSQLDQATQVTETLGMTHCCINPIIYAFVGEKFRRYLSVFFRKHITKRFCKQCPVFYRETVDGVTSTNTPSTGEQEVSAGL
Description: (§1) HEK293 cells were transfected with different chemokine receptors. The corresponding chemokines of different receptors were placed in the lower chambers. The transfected cells were pretreated with different concentrations of Compound 8a or 1‰ DMSO for 30 min at a density of 1 × 10^6 cells/ml and added to the upper chambers, the final concentration of the compound is: 0.2 μM, 1 μM, 5 μM, and 25 μM, respectively.

[2] = biological target: T2, CCR7 (Homo sapiens, UniProt P32248); assay: Chemotaxis assay for receptor specificity, HEK293-CCR7; details: compound as chemoattractant in lower chamber, 0.2, 1, 5, 25 μM
T2 construct: expressed in transfected cells; host or cells: HEK293, pcDB-CCR7 plasmid made in the authors' laboratory
T2 sequence (P32248 25-378): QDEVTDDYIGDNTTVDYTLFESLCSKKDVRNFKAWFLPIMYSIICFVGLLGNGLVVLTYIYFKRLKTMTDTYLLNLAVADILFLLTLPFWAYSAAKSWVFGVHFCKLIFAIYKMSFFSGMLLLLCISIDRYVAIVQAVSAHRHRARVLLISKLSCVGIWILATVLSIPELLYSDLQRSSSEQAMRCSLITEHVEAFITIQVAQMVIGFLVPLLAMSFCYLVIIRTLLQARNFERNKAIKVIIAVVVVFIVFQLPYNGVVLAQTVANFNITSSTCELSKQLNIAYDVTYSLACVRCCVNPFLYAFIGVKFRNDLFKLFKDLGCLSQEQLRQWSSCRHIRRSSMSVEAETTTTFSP
Description: (§2) HEK293 cells were transfected with different chemokine receptors. Compound 8a with DMSO was diluted to 0.2 mM, 1 mM, 5 mM and 25 mM, and then we used RPMI 1640 medium containing 0.1% BSA for dilution. The final concentration is: 0.2 μM, 1 μM, 5 μM and 25 μM. DMSO was also diluted 1000-fold with 0.1% BSA RPMI 1640 medium. Chemokines was also diluted to an appropriate concentration. The dilutions of Compound 8a, 1‰ DMSO, the corresponding chemokines of different receptors and 0.1% BSA RPMI 1640 medium were placed in the lower chambers (27.5 μl/well). The transfected HEK293 cells were resuspended in the same medium at a density of 1 × 10^6 cells/ml and added to the upper chambers (55 μl/well).

[3] = biological target: T3, CCR3 (Homo sapiens, UniProt P51677); assay: Chemotaxis inhibition assay for receptor specificity, HEK293-CCR3; details: 0.2, 1, 5, 25 μM, 30 min pretreatment
T3 sequence (P51677 2-355 limits assumed): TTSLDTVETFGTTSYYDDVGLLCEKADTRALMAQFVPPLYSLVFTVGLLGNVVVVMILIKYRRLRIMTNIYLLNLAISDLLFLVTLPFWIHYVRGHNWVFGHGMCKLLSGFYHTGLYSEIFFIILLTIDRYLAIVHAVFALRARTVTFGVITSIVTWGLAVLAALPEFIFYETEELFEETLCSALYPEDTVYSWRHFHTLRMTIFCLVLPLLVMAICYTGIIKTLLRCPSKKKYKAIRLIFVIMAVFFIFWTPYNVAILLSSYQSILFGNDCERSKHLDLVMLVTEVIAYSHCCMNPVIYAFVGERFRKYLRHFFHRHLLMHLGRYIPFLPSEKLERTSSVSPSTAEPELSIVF
Description: as §1

[4] = biological target: T4, CCR6 (Homo sapiens, UniProt P51684); assay: Chemotaxis assay for receptor specificity, HEK293-CCR6; details: compound as chemoattractant in lower chamber, 0.2, 1, 5, 25 μM
T4 construct: expressed in transfected cells; host or cells: HEK293, pcDI-CCR6 plasmid made in the authors' laboratory
T4 sequence (P51684 1-374): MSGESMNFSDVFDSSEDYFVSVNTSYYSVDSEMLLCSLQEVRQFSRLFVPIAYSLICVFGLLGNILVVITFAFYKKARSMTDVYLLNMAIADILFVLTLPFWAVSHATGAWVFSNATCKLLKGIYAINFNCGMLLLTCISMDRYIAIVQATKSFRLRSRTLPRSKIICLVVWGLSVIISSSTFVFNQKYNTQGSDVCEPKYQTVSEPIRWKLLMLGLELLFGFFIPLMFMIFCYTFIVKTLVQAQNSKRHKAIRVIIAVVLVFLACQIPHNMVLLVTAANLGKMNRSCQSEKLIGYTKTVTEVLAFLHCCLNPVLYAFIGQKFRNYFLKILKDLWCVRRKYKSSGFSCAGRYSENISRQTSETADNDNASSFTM
Description: as §2

[5] = biological target: T5, CXCR4 (Homo sapiens, UniProt P61073); assay: Chemotaxis inhibition assay for receptor specificity, HEK293-CXCR4; details: 0.2, 1, 5, 25 μM, 30 min pretreatment
T5 construct: expressed in transfected cells; host or cells: HEK293; plasmid from Chinese National Human Genome Center
T5 sequence (P61073 1-356 isoform P61073-2): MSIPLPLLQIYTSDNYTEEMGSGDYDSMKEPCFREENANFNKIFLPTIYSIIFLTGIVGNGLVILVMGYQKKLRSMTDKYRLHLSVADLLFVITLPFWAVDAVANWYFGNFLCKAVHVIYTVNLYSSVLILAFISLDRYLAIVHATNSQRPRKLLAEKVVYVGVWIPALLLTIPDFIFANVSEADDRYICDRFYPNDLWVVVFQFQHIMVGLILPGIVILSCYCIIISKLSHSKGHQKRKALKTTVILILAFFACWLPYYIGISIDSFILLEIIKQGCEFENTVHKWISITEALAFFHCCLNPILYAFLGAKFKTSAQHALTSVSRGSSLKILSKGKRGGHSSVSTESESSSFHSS
Description: as §1

O=C(C1CCCCN1)N1CCN(c2nc(Cl)cc(NCc3ccc(Cl)cc3Cl)n2)CC1 (centres unmarked) [compound 8a, {4-[4-Chloro-6-(2,4-dichloro-benzylamino)-pyrimidin-2-yl]-piperazin-1-yl}-piperidin-2-yl-methanone]
inhibition of chemotaxis of HEK293-CCR2B to its ligand [1]: few influence | chemotaxis effect of the compound on HEK293-CCR7 [2]: didn’t exert chemotaxis effects | inhibition of chemotaxis of HEK293-CCR3 to its ligand [3]: few influence | chemotaxis effect of the compound on HEK293-CCR6 [4]: didn’t exert chemotaxis effects | inhibition of chemotaxis of HEK293-CXCR4 to its ligand [5]: few influence
